From patent US12139458B2, “(2,5-dioxopyrrolidin-1-yl)(phenyl)-acetamide derivatives and their use in the treatment of neurological diseases” (UNIWERSYTET JAGIELLONSKI, priority 2019, dated 2024)

How the values were obtained:
[1] = tested on: Na+ channel (site 2); assay: Na+ channel (site 2) affinity study; format: binding; settings: rat cerebral cortex
From the text: (§1) A unique feature of the compound 6 representing compounds of formula (II) according to the invention is the inhibition of calcium currents by blocking the transient receptor potential vanilloid type 1 (TRPV1). This effect has not been disclosed for known AEDs. TRPV1 receptor antagonism may determine the antinociceptive effect of the compounds disclosed herein. The role of the TRPV1 receptor in conduction of pain stimuli has been well documented in specialist literature (Szallasi, A.; Cortright, D. N.; Blum, C. A.; Eid, S. R. Nat. Rev. Drug. Discov. 2007, 6, 357-372). The compounds according to the invention are characterized by a complex mechanism of action, which is not described for known anticonvulsants. It should be emphasized, however, that further in vitro studies may reveal further molecular targets responsible for the pharmacological action of substances being the subject of current patent claim. The results of binding studies (sodium channel, calcium channel) and functional tests (TRPV1 receptor) for compound 6 are shown in Table 3.

[2] = molecular target: T1, P-glycoprotein (Pgp) (Homo sapiens, UniProt P08183); assay: Pgp-Glo Assay System (Pgp activity); format: in vitro ADME
T1 construct: purchased Promega (Madison, WI, USA)
From the text: Impact on Pgp activity. P-glycoprotein (Pgp) is an integral plasma membrane protein that, as an ATP-dependent […] pump, actively removes xenobiotics and can cause drug interactions. Pgp plays an important role in the absorption of drugs in the gastrointestinal tract and also through the blood-brain barrier. A commercial bioluminescent Pgp-Glo™ Assay System test (Promega, Madison, WI, USA) was used to study the effect of compound 6 on Pgp activity. The operation of the test is based on measuring changes in the level of ATP consumed by membranes containing the recombinant Pgp protein in the presence of test compounds. The results were presented as % of baseline activity and compared to reference compounds: selective Pgp inhibitor Na3VO4 and verapamil stimulator.
Impact on Pgp activity—methodology. The tests were performed according to the protocol of the bioluminescent Pgp-Glo™ Assay System test provided by the Promega company (Madison, WI, USA). […] Bioluminescence was measured with a PerkinElmer multispecific EnSpire plate reader (Waltham, MA USA). […] The calculated difference between the luminescence values of the inhibitor-treated sample and the control sample was taken as 100% of the Pgp base activity and treated as a negative control in the test. […] Statistical significance was calculated by one-way ANOVA variance analysis and the Bonferroni method using GraphPad Prism 5. […]

[3] = molecular target: TRPV1 receptor (VR1) (h) (Homo sapiens, UniProt Q8NER1); assay: TRPV1 receptor functional study (antagonist effect); format: cell-based; settings: human recombinant cells (CHO), read-out: % Inhibition of agonist control responses, TRPV1 receptor (antagonist effect)
From the text: as §1

[4] = tested on: male Swiss albino mice (CD-1); assay: Subcutaneous pentylenetetrazole seizure test (scPTZ); format: in vivo
In short: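 Compounds given i.p. in 1% aqueous Tween 30 min before s.c. PTZ at 100 mg/kg. Mice observed 30 min for clonic seizures (whole-body clonus ≥3 s with loss of righting reflex); absence counted as protection. ED50 from 3-4 groups of 6 mice; screening in groups of 4.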

[5] = Rotarod test (motor coordination); format: in vivo; settings: male, Swiss albino (CD-1), mouse, in vivo, ip, mice
In short: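 Compounds were given i.p. in 1% aqueous Tween as single doses 30 min before testing, 4 mice per group, after training the day before. Mice were tested on a 2 cm rod at 10 rpm for 60 s, and failure to stay on for 1 min counted as impairment. Statistics: one-way ANOVA with Dunnett's test, p<0.05.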

T1 sequence (P08183 whole entry): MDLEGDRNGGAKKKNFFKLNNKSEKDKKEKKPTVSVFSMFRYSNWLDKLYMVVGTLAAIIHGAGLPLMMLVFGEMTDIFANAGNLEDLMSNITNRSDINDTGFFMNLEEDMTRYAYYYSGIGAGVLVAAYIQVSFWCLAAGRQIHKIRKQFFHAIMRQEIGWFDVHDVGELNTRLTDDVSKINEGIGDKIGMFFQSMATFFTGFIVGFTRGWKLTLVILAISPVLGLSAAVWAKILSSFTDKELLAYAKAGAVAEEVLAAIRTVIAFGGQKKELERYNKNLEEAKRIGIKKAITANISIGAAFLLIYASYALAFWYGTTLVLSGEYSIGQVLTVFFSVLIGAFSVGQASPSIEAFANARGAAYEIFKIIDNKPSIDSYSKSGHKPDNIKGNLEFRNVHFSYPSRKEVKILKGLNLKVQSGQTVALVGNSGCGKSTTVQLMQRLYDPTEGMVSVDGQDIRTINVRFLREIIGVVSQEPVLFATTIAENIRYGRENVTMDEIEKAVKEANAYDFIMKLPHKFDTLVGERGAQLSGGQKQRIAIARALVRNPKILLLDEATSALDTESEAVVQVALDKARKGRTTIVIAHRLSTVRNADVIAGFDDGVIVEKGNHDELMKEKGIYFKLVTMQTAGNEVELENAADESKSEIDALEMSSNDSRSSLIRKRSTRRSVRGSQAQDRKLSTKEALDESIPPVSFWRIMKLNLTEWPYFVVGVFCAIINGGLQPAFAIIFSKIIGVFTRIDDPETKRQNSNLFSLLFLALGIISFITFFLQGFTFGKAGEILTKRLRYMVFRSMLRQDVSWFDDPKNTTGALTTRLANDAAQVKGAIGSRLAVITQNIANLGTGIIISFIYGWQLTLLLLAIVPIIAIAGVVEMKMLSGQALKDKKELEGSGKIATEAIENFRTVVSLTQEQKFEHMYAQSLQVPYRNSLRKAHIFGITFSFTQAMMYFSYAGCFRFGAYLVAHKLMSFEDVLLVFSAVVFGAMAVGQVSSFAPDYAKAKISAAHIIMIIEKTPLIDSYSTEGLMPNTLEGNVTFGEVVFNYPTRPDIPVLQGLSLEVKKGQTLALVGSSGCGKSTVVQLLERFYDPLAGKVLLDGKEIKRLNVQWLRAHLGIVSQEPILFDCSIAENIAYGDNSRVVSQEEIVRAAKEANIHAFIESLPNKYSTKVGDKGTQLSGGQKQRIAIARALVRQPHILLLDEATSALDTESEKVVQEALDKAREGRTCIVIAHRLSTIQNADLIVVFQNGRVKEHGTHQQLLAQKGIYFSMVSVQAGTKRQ
Sequence of TRPV1 receptor (VR1) (h) (Q8NER1 whole entry): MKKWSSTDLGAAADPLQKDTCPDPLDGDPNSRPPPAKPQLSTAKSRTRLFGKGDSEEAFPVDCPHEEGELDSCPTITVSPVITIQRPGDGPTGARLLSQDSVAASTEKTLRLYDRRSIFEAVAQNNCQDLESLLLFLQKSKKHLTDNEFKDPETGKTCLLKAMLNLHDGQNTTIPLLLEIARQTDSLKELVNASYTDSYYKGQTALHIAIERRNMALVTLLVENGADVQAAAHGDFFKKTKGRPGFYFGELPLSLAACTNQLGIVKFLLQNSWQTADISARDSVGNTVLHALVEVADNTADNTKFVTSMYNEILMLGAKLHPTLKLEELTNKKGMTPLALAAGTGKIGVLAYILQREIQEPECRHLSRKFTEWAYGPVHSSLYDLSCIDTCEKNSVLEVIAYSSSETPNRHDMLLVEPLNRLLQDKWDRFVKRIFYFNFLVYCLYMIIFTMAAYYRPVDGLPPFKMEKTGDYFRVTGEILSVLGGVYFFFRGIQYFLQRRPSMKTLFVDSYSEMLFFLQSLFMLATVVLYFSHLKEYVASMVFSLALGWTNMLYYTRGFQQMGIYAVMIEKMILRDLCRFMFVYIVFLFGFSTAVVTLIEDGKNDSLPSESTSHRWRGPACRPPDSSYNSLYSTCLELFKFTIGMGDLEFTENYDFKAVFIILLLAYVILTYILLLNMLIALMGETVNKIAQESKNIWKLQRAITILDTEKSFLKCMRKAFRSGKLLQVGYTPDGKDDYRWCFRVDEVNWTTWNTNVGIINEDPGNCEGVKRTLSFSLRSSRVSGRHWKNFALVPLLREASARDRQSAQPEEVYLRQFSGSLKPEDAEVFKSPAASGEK

O=C(C(c1ccccc1)N1C(=O)CCC1=O)N1CCN(c2cccc(C(F)(F)F)c2)CC1 (racemic) [Compound 6, 1-(2-Oxo-1-phenyl-2-(4-(3-(trifluoromethyl)phenyl)piperazin-1-yl)ethyl)pyrrolidine-2,5-dione]
Inhibition of specific control binding, Na+ channel (site 2) ([1]; 10 μM): 33.4 (10) % | Inhibition of specific control binding, Na+ channel (site 2) ([1]; 100 μM): 82.5 (100) % | effect on Pgp activity ([2]; 50 μM): no effect on Pgp activity | Pgp activity, % of baseline activity ([2]; 100 μM, inhibitory effect, p<0.01): 38% | inhibition at 100 µM [3]: 71.7% | ED50 ([4]; Mus musculus, ip, 0.5 h, mice): 59.4 mg/kg | responders at 100 mg/kg ([4]; Mus musculus, ip, screening, 100 mg/kg i.p., 0.5 h, mice, read-out: scPTZ: number of mice protected/number of mice tested (converted)): 100% | mice protected in the scPTZ test ([4]; screening, 100 mg/kg, time point 0.5 h): 100% | TD50 at 0.5 h [5]: 196 mg/kg
